# Earlier results in PubChem BioAssay AID1259409 (Chemical Carcinogenesis Research Information System (CCRIS), 2018).
# Tested on: rodent chemically induced tumor inhibition, incidence and multiplicity
# Assay: CCRIS tumor inhibitor studies
# Details: Carcinogen: DIETHYLNITROSAMINE, 55-18-5, N-METHYLNITROSOUREA, 684-93-5, 1,2-DIMETHYLHYDRAZINE, 540-73-8, N-BUTYL-N-(4-HYDROXYB, Carcinogen: DIETHYLNITROSAMINE, 55-18-5, N-METHYLNITROSOUREA, 684-93-5, 1,2-DIMETHYLHYDRAZINE, 540-73-8, N-BUTYL-N-(4-HYDROXYB, Dose [Inhibitor]: 0, Route [Inhibitor]: ORAL, Species: RAT, Strain/Sex: F344/MALE, Dose [Carcinogen]: 100 MG/KG DEN ONCE, 20 MG/KG MNU 4 TIMES, 40 MG/KG DMH 4 TIMES, 0.05% BBN IN DRINKING WATER FOR 2 WK, 0.1% DHPN IN D, Dose [Carcinogen]: 100 MG/KG DEN ONCE, 20 MG/KG MNU 4 TIMES, 40 MG/KG DMH 4 TIMES, 0.05% BBN IN DRINKING WATER FOR 2 WK, 0.1% DHPN IN D, Promoter: NONE USED
compound,measurement,setting,value
O=c1c(O)c(-c2ccc(O)c(O)c2)oc2cc(O)cc(O)c12,"tumour outcome (control, treated, inhibition, significance)","1% IN DIET FOR 4 WK BEGINNING 1 DAY PRIOR TO CARCINOGEN TREATMENT (STUDY DURATION: 36 WK), Target Tissue: Type of Lesion: LUNG: ADENOMA","6/14 (43%), 2/13 (15%), 65%, not significant"
same,"tumour outcome (control, treated, inhibition, significance)","1% IN DIET FOR 4 WK BEGINNING 1 DAY PRIOR TO CARCINOGEN TREATMENT (STUDY DURATION: 36 WK), Target Tissue: Type of Lesion: SMALL INTESTINE: ADENOMA","6/14 (43%), 1/13 (8%), 81%, p<0.05"
same,"tumour outcome (control, treated, inhibition, significance)","1% IN DIET FOR 4 WK BEGINNING 1 DAY PRIOR TO CARCINOGEN TREATMENT (STUDY DURATION: 36 WK), Target Tissue: Type of Lesion: SMALL INTESTINE: CARCINOMA","5/14 (36%), 2/13 (15%), 58%, not significant"
same,"tumour outcome (control, treated, inhibition, significance)","1% IN DIET FOR 32 WK BEGINNING POST CARCINOGEN TREATMENT (STUDY DURATION: 36 WK), Target Tissue: Type of Lesion: KIDNEY: ADENOMA","4/14 (29%), 3/12 (25%), 14%, not significant"
same,"tumour outcome (control, treated, inhibition, significance)","1% IN DIET FOR 32 WK BEGINNING POST CARCINOGEN TREATMENT (STUDY DURATION: 36 WK), Target Tissue: Type of Lesion: KIDNEY: NEPHROBLASTOMA","7/14 (50%), 4/12 (33%), 34%, not significant"
same,"tumour outcome (control, treated, inhibition, significance)","1% IN DIET FOR 32 WK BEGINNING POST CARCINOGEN TREATMENT (STUDY DURATION: 36 WK), Target Tissue: Type of Lesion: LARGE INTESTINE: CARCINOMA","3/14 (21%), 4/12 (33%), -57%, not significant"
